Where two headings read alike, the source gives them in different places.
Legend:
HIV-IIIb = assay: Test A: Antiviral Assay in MT4 Cells; assay type: cell-based, HIV-1; settings: read-out: % inhibition at 6 μM
Experimental: Test A: Antiviral Assay in MT4 Cells
(§1) For the antiviral assay, 40 μL of 1× test concentration of 3-fold serially diluted compound in culture medium with 10% FBS was added to each well of a 384-well plate (10 concentrations) in quadruplicate. MT-4 cells were next mixed with HIV-IIIb at an m.o.i of 0.003 for 1 hour, after which time 35 μL of virus/cell mixture (2000 cells) was immediately added to each well containing 40 μL of diluted compound. The plates were then incubated at 37° C. for 5 days. After 5 days of incubation, 25 μl of 2× concentrated CellTiter-Glo™ Reagent (catalog #G7571, Promega Biosciences, Inc., Madison, Wis.) was added to each well containing MT-4 cells. Cell lysis was carried out by incubating at room temperature for 10 min and then chemiluminescence was read.

[1] = Test B: Cytotoxicity assay; assay type: cell-based; settings: human, uninfected MT-4 cells, same protocol as Test A, CellTiter-Glo
Experimental: as §1
Test B:Cytotoxicity assay
Compound cytotoxicity and the corresponding CC50 values was determined using the same protocol as described in the antiviral assay (Test A) except that uninfected cells were used.

[2] = Human immunodeficiency virus 1, IIIB, MT4, 120 h
[3] = Human immunodeficiency virus 1, MT4, 120 h, percent inhibition of virus-induced cell killing at 6 μM drug concentration, from the dose response curve, MT-4 cells infected with HIV-IIIb, 5 days

SMILES | inhibition at 6 µM (HIV-IIIb; [2]) | CC50 at 5 days [1] | inhibition at 6 µM (HIV-IIIb; [3])
O=C(Cn1nc(C(F)(F)F)c2c1CCCC2)N[C@@H](Cc1ccccc1)c1nccn1-c1ccccc1 [Compound 1E, (S)—N-(2-phenyl-1-(1-phenyl-1H-imidazol-2-yl)ethyl)-2-(3-(trifluoromethyl)-4,5,6,7-tetrahydro-1H-indazol-1-yl)acetamide] | 83% | 21.9 µM | –
CC(C)CCn1ccnc1[C@H](Cc1ccccc1)NC(=O)Cn1nc(C(F)(F)F)c2c1CCCC2 [Compound 2, (S)—N-(1-(1-isopentyl-1H-imidazol-2-yl)-2-phenylethyl)-2-(3-(trifluoromethyl)-4,5,6,7-tetrahydro-1H-indazol-1-yl)acetamide] | – | 27.8 µM | 6%
COc1ccccc1Cn1ccnc1[C@H](Cc1ccccc1)NC(=O)Cc1c[nH]c2ccc(O)cc12 [Compound 3C, (S)-2-(5-hydroxy-1H-indol-3-yl)-N-(1-(1-(2-methoxybenzyl)-1H-imidazol-2-yl)-2-phenylethyl)acetamide] | 19% | 37.1 µM | –
COc1ccc(-n2ccnc2[C@H](Cc2cc(F)cc(F)c2)NC(=O)Cn2nc(C(F)(F)F)c3c2CCCC3)cc1 [Compound 5F, (S)—N-(2-(3,5-difluorophenyl)-1-(1-(4-methoxyphenyl)-1H-imidazol-2-yl)ethyl)-2-(3-(trifluoromethyl)-4,5,6,7-tetrahydro-1H-indazol-1-yl)acetamide] | 79% | 13.5 µM | –
COc1ccc(-n2ccnc2[C@@H](Cc2cc(F)cc(F)c2)NC(=O)Cn2nc(C(F)(F)F)c3c2CCCC3)cc1 [Compound 6B, (R)—N-(2-(3,5-difluorophenyl)-1-(1-(4-methoxyphenyl)-1H-imidazol-2-yl)ethyl)-2-(3-(trifluoromethyl)-4,5,6,7-tetrahydro-1H-indazol-1-yl)acetamide] | 4% | 12 µM | –
COc1ccc(-n2ccnc2[C@H](Cc2cc(F)cc(F)c2)NC(=O)Cc2c[nH]c3ccc(O)cc23)cc1 [Compound 7, (S)—N-(2-(3,5-difluorophenyl)-1-(1-(4-methoxyphenyl)-1H-imidazol-2-yl)ethyl)-2-(5-hydroxy-1H-indol-3-yl)acetamide] | 121% | – | –
COc1ccc(-n2ccnc2[C@@H](Cc2cc(F)cc(F)c2)NC(=O)Cc2c[nH]c3ccc(O)cc23)cc1 [Compound 8, (R)—N-(2-(3,5-difluorophenyl)-1-(1-(4-methoxyphenyl)-1H-imidazol-2-yl)ethyl)-2-(5-hydroxy-1H-indol-3-yl)acetamide] | 6% | – | –
O=C(Cn1nc(C(F)(F)F)c2c1CCCC2)NC(Cc1ccccc1)c1cnnn1-c1ccccc1 (centres unmarked) [Compound 9E, N-(2-phenyl-1-(1-phenyl-1H-1,2,3-triazol-5-yl)ethyl)-2-(3-(trifluoromethyl)-4,5,6,7-tetrahydro-1H-indazol-1-yl)acetamide] | 0% | 13.2 µM | –
Cc1nnc(C(Cc2ccccc2)NC(=O)Cc2c[nH]c3ccc(O)cc23)n1-c1ccccc1 (centres unmarked) [Compound 10G, 2-(5-hydroxy-1H-indol-3-yl)-N-(1-(5-methyl-4-phenyl-4H-1,2,4-triazol-3-yl)-2-phenylethyl)acetamide] | – | > 53.2 µM | 51%
Cc1nnc(C(Cc2ccccc2)NC(=O)Cn2nc(C(F)(F)F)c3c2CCCC3)n1-c1ccccc1 (centres unmarked) [Compound 11, N-(1-(5-methyl-4-phenyl-4H-1,2,4-triazol-3-yl)-2-phenylethyl)-2-(3-(trifluoromethyl)-4,5,6,7-tetrahydro-1H-indazol-1-yl)acetamide] | – | > 53 µM | 76%
O=C(Cc1c[nH]c2ccc(O)cc12)NC(Cc1ccccc1)c1cnnn1-c1ccccc1 (centres unmarked) [Compound 12, 2-(5-hydroxy-1H-indol-3-yl)-N-(2-phenyl-1-(1-phenyl-1H-1,2,3-triazol-5-yl)ethyl)acetamide] | – | > 53 µM | 4%
Cc1ccccc1-c1scnc1C(Cc1cc(F)cc(F)c1)NC(=O)Cc1c[nH]c2ccc(O)cc12 (centres unmarked) [Compound 13E, N-(2-(3,5-difluorophenyl)-1-(5-(o-tolyl)thiazol-4-yl)ethyl)-2-(5-hydroxy-1H-indol-3-yl)acetamide] | 93% | – | –
Cc1ccccc1-c1scnc1C(Cc1cc(F)cc(F)c1)NC(=O)Cn1nc(C(F)(F)F)c2c1CCCC2 (centres unmarked) [Compound 14, N-(2-(3,5-difluorophenyl)-1-(5-(o-tolyl)thiazol-4-yl)ethyl)-2-(3-(trifluoromethyl)-4,5,6,7-tetrahydro-1H-indazol-1-yl)acetamide] | – | 11.3 µM | 60%
Cc1nc(-c2ccccc2)c(C(Cc2ccccc2)NC(=O)Cc2c[nH]c3ccc(O)cc23)s1 (centres unmarked) [Compound 15C, 2-(5-hydroxy-1H-indol-3-yl)-N-(1-(2-methyl-4-phenylthiazol-5-yl)-2-phenylethyl)acetamide] | – | 35 µM | 0%
Cc1nc(-c2ccccc2)c([C@H](Cc2ccccc2)NC(=O)Cn2nc(C(F)(F)F)c3c2CCCC3)s1 [Compound 16, (S)—N-(1-(2-methyl-4-phenylthiazol-5-yl)-2-phenylethyl)-2-(3-(trifluoromethyl)-4,5,6,7-tetrahydro-1H-indazol-1-yl)acetamide] | – | 51.9 µM | 0%
O=C(Cc1c[nH]c2ccc(F)cc12)N[C@@H](Cc1cc(F)cc(F)c1)c1nnc(-c2ccccc2)o1 [Compound 17B, (S)—N-(2-(3,5-difluorophenyl)-1-(5-phenyl-1,3,4-oxadiazol-2-yl)ethyl)-2-(5-fluoro-1H-indol-3-yl)acetamide] | 0% | > 53 µM | –
O=C(Cc1c[nH]c2ccc(F)cc12)N[C@@H](Cc1ccccc1)c1nc(-c2ccccc2)no1 [Compound 18B, (S)-2-(5-fluoro-1H-indol-3-yl)-N-(2-phenyl-1-(3-phenyl-1,2,4-oxadiazol-5-yl)ethyl)acetamide] | 4% | > 53 µM | –
O=C(Cc1c[nH]c2ccc(F)cc12)NC(Cc1cc(F)cc(F)c1)c1cnc(-c2ccc(Cl)cc2)o1 (centres unmarked) [Compound 19F, N-(1-(2-(4-chlorophenyl)oxazol-5-yl)-2-(3,5-difluorophenyl)ethyl)-2-(5-fluoro-1H-indol-3-yl)acetamide] | – | 9.14 µM | 0%
O=C(Cn1nc(C(F)(F)F)c2c1CCCC2)NC(Cc1cc(F)cc(F)c1)c1cnc(-c2ccc(Cl)cc2)o1 (centres unmarked) [Compound 20, N-(1-(2-(4-chlorophenyl)oxazol-5-yl)-2-(3,5-difluorophenyl)ethyl)-2-(3-(trifluoromethyl)-4,5,6,7-tetrahydro-1H-indazol-1-yl)acetamide] | 1% | 12.2 µM | –
COc1ccc2[nH]cc(CC(=O)NC(Cc3cc(F)cc(F)c3)c3cnc(-c4ccc(Cl)cc4)o3)c2n1 (centres unmarked) [Compound 21, N-(1-(2-(4-chlorophenyl)oxazol-5-yl)-2-(3,5-difluorophenyl)ethyl)-2-(5-methoxy-1H-pyrrolo[3,2-b]pyridin-3-yl)acetamide] | – | 25.4 µM | 2%
O=C(Cc1c[nH]c2ccc(O)nc12)NC(Cc1cc(F)cc(F)c1)c1cnc(-c2ccc(Cl)cc2)o1 (centres unmarked) [Compound 22, N-(1-(2-(4-chlorophenyl)oxazol-5-yl)-2-(3,5-difluorophenyl)ethyl)-2-(5-hydroxy-1H-pyrrolo[3,2-b]pyridin-3-yl)acetamide] | – | 50.7 µM | 1%
Cc1cc2ncn(CC(=O)NC(Cc3cc(F)cc(F)c3)c3cnc(-c4ccc(Cl)cc4)o3)c2cc1C (centres unmarked) [Compound 23, N-(1-(2-(4-chlorophenyl)oxazol-5-yl)-2-(3,5-difluorophenyl)ethyl)-2-(5,6-dimethyl-1H-benzo[d]imidazol-1-yl)acetamide] | 0% | 12 µM | –
O=C(Cc1c[nH]c2ccc(O)cc12)NC(Cc1cc(F)cc(F)c1)c1cnc(-c2ccc(Cl)cc2)o1 (centres unmarked) [Compound 24, N-(1-(2-(4-chlorophenyl)oxazol-5-yl)-2-(3,5-difluorophenyl)ethyl)-2-(5-hydroxy-1H-indol-3-yl)acetamide] | – | 13.6 µM | 5%
O=C(Cc1c[nH]c2ccc(O)cc12)N[C@@H](Cc1cc(F)cc(F)c1)c1nocc1-c1ccc(Cl)cc1 [Compound 26, (S)—N-(1-(4-(4-chlorophenyl)isoxazol-3-yl)-2-(3,5-difluorophenyl)ethyl)-2-(5-hydroxy-1H-indol-3-yl)acetamide] | 106% | – | –
O=C(Cc1c[nH]c2ccc(O)cc12)N[C@H](Cc1cc(F)cc(F)c1)c1nocc1-c1ccc(Cl)cc1 [Compound 28B, (R)—N-(1-(4-(4-chlorophenyl)isoxazol-3-yl)-2-(3,5-difluorophenyl)ethyl)-2-(5-hydroxy-1H-indol-3-yl)acetamide] | 3% | – | –
Cn1cnc(C(Cc2cc(F)cc(F)c2)NC(=O)Cc2c[nH]c3ccc(O)cc23)c1-c1ccc(Cl)cc1 (centres unmarked) [Compound 31, N-(1-(5-(4-chlorophenyl)-1-methyl-1H-imidazol-4-yl)-2-(3,5-difluorophenyl)ethyl)-2-(5-hydroxy-1H-indol-3-yl)acetamide] | 75% | – | –
Cc1cc2ncn(CC(=O)NC(Cc3cc(F)cc(F)c3)c3ncoc3-c3ccc(Cl)cc3)c2cc1C (centres unmarked) [Compound 33H, N-(1-(5-(4-chlorophenyl)oxazol-4-yl)-2-(3,5-difluorophenyl)ethyl)-2-(5,6-dimethyl-1H-benzo[d]imidazol-1-yl)acetamide] | – | 31.8 µM | –
